Laboratory results: publication PMC7591795, “Humulone Modulation of GABAA Receptors and Its Role in Hops Sleep-Promoting Activity” (Frontiers in Neuroscience, 2020)
Values after ≈ are worked out from the molar mass of the structure shown. “Also recorded” adds a separate entry of the source. Read-outs that look alike come from different tables or passages of the source.

Tests used:
[1] = test system: native GABAA receptors in rat forebrain membranes; test: [3H]EBOB binding assay, rat forebrain membranes; conditions: each compound 1 μM, GABA 3 μM, n = 3
Protocol: (§1) The protein concentrations of brain membranes were determined with the Bio-Rad Coomassie blue dye-based protein assay kit (Hercules, CA, United States) as per the manufacturer’s protocol. Transfected HEK293 cells were harvested 48 h after transfection using a detaching buffer (10 mM Tris-HCl, 0.15 M NaCl, 2 mM EDTA) and centrifuged at 20,000 g for 10 min at +4 °C. The resulting pellets were suspended in the assay buffer for binding assays.
(§2) In humulone concentration series with recombinant α6β3, α6β3γ2S, and α6β3δ receptors, HEK293 cell membranes were incubated in the same above conditions for 120 min with [^3H]EBOB (1 nM) and different concentrations of humulone (30 nM–30 μM) in the presence or absence of ethanol (30 mM). […] Picrotoxin (100 μM) was used to determine the non-specific binding in all assays.
(§3) Membrane samples were filtered through Whatman GF/B glass fiber filters (Whatman International Ltd., Maidstone, United Kingdom) using a Brandel Cell Harvester (model M-24, Gaithersburg, MD, United States). The filters were rinsed three times with 5 mL of ice-cold 10 mM Tris-HCl, pH 7.4 buffer. Air-dried filters were immersed in 3 mL of Hidex AquaLight Beta scintillation liquid and radioactivity was determined in Hidex 600 SL liquid scintillation counter (Hidex, Turku, Finland).

[2] = test system: native GABAA receptors in rat forebrain membranes; set-up: method as in Benkherouf et al., 2020; conditions: ref Benkherouf et al., 2020, cited from earlier work
[3] = test system: native αβγ2 GABAA receptors, classical benzodiazepine binding site; set-up: method as in Benkherouf et al., 2019, 2020; conditions: ref Benkherouf et al., 2019, 2020, cited from earlier work
GABAA receptors = test system: GABAA receptors; set-up: method as in Benkherouf et al., 2020; conditions: ref Benkherouf et al., 2020; cited from earlier work
[4] = test system: native GABAA receptors in rat cerebellar membranes; type: binding
Protocol: as §1, §2, §3

[5] = target: T1, recombinant α6β3δ GABAA receptors (Rattus norvegicus, UniProt P18506+P30191+P63079); test: [3H]EBOB binding assay, recombinant α6β3δ receptors in HEK293 cell membranes; conditions: GABA 3 μM
T1 construct: expressed in transfected cells; host or cells: HEK293 cells, transient CaPO4 transfection, pRK5 plasmids; cell membranes used
T1 sequence (P30191 20-453): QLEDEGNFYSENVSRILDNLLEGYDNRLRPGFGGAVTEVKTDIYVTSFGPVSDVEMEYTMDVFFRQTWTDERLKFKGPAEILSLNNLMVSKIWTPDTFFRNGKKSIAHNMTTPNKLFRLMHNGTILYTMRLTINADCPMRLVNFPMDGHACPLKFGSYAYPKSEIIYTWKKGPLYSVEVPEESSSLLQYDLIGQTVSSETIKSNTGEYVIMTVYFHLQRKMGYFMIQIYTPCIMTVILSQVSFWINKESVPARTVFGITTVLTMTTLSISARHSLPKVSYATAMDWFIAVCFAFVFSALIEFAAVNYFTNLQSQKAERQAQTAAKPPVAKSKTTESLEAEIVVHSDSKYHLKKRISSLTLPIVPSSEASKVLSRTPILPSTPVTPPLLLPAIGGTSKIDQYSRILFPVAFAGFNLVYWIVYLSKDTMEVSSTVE
T1 sequence (P63079 26-473): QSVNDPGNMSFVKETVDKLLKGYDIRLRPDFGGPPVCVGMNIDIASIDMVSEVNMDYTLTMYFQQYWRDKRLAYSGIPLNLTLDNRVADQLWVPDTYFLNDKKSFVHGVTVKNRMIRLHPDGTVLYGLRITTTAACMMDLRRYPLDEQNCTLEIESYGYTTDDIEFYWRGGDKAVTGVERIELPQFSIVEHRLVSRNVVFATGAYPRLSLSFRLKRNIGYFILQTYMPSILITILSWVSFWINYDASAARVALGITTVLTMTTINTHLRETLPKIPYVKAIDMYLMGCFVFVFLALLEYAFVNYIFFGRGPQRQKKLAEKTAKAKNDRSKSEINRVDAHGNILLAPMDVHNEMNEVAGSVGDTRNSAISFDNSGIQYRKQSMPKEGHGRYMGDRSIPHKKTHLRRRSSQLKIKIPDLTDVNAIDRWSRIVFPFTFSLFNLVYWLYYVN
T1 sequence (P18506 25-449): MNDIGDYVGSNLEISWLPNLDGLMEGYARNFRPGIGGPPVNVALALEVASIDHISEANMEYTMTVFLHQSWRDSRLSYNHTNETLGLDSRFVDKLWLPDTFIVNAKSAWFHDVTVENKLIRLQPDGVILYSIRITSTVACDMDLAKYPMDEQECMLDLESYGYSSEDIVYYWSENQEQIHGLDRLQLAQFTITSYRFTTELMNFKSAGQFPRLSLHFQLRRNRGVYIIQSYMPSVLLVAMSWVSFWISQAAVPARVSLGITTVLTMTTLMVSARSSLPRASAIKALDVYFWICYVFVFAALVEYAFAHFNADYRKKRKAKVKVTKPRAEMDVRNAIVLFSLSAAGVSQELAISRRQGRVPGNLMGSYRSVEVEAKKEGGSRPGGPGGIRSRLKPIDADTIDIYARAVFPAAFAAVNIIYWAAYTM
Protocol: (§4) The cells were divided and plated on 150 mm culture dishes for binding assays and 12 mm coverslips in 24-well cell culture plates for electrophysiology 24 h before transfection.
(§5) The cells were transiently transfected with rat cDNAs encoding GABAA receptor subunits (α1, L08490; α6, L08495; β3, X15468; γ2S, L08497; δ, L08496) in pRK5 plasmids under the control of CMV promoter ([Uusi-Oukari et al., 2000]). The plasmids were used in 1:1 and 1:1:1 ratio for transfections containing α1β3γ2S, α6β3, α6β3γ2S, and α6β3δ receptor subtypes. […] (Supplementary Figure S1). For electrophysiology, K4® transfection system (Biontex, München, Germany) was used according to the manufacturer’s protocol to increase expression efficiency and cell viability. […] The medium was changed 24 h after transfection and all experiments were performed 48 h after transfection.
as §1, §2, §3

[6] = target: T2, recombinant α6β3γ2 GABAA receptors (Rattus norvegicus, UniProt P18508+P30191+P63079); test: [3H]EBOB binding assay, recombinant α6β3γ2 receptors in HEK293 cell membranes; conditions: GABA 3 μM
T2 construct: expressed in transfected cells; host or cells: HEK293 cells, transient CaPO4 transfection, pRK5 plasmids; cell membranes used
T2 sequence (P30191 20-453): as the sequence (P30191 20-453) above
T2 sequence (P63079 26-473): as the sequence (P63079 26-473) above
T2 sequence (P18508 39-466): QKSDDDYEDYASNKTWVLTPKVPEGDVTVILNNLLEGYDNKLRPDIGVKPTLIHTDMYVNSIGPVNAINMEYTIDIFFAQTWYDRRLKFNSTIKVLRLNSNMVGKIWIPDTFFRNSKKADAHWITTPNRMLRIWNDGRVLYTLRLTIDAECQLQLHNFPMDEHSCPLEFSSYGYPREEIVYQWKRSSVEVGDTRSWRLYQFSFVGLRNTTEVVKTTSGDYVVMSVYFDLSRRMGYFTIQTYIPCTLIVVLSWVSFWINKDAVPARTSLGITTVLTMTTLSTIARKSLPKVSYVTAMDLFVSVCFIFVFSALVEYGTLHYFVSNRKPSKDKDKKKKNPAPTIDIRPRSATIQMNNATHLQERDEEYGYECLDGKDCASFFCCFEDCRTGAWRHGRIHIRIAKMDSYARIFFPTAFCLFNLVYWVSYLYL
Protocol: as §4, §5, §1, §2, §3

[7] = target: T3, recombinant α6β3 GABAA receptors (Rattus norvegicus, UniProt P30191+P63079); test: [3H]EBOB binding assay, recombinant α6β3 receptors in HEK293 cell membranes; conditions: GABA 3 μM
T3 construct: expressed in transfected cells; host or cells: HEK293 cells, transient CaPO4 transfection, pRK5 plasmids (1:1); cell membranes used
T3 sequence (P30191 20-453): as the sequence (P30191 20-453) above
T3 sequence (P63079 26-473): as the sequence (P63079 26-473) above
Protocol: as §4, §5, §1, §2, §3

[8] = target: T4, recombinant α1β3γ2 GABAA receptors (Rattus norvegicus, UniProt P18508+P62813+P63079); test: Whole-cell patch-clamp of GABA-induced currents in transfected HEK293 cells; type: cell-based; conditions: humulone 10 μM, GABA 1 μM, 1 min application, −60 mV, n = 8 cells
T4 construct: expressed in transfected cells; host or cells: HEK293 cells, transient transfection (K4 transfection system), pRK5 plasmids; EGFP co-transfected from a separate pWPI plasmid
T4 sequence (P62813 28-455): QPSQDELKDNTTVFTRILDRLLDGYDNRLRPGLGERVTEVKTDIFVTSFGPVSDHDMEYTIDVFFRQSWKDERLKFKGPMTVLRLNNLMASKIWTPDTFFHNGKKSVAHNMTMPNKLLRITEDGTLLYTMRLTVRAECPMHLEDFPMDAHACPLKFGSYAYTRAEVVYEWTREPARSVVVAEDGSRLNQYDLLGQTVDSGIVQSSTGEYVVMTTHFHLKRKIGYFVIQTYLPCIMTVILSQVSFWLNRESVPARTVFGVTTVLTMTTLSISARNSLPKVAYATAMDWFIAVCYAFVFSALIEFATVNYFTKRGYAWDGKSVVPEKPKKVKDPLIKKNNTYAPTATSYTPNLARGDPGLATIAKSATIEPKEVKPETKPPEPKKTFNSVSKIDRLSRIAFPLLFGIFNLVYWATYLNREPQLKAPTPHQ
T4 sequence (P63079 26-473): as the sequence (P63079 26-473) above
T4 sequence (P18508 39-466): as the sequence (P18508 39-466) above
Protocol: Human embryonic kidney (HEK) 293 cells (Sigma- Aldrich, St Louis, MO, United States) were maintained in Dulbecco’s modified Eagle’s medium supplemented with 10% fetal bovine serum (Gibco, Gaithersburg, MD; United States), 50 U/mL penicillin and 50 μg/mL streptomycin (Sigma-Aldrich, St Louis, MO, United States) under standard growth conditions at 37°C, 95% humidity and 5% CO2. The cells were divided and plated on 150 mm culture dishes for binding assays and 12 mm coverslips in 24-well cell culture plates for electrophysiology 24 h before transfection.
The cells were transiently transfected with rat cDNAs encoding GABAA receptor subunits (α1, L08490; α6, L08495; β3, X15468; γ2S, L08497; δ, L08496) in pRK5 plasmids under the control of CMV promoter ([Uusi-Oukari et al., 2000]). The plasmids were used in 1:1 and 1:1:1 ratio for transfections containing α1β3γ2S, α6β3, α6β3γ2S, and α6β3δ receptor subtypes. For radioligand binding, CaPO4 precipitation method was used essentially as described earlier ([Lüddens and Korpi, 1997]). […]
The cells were continuously perfused with external HEK-Krebs solution containing (in mM): 140 NaCl, 4.7 KCl, 1.2 MgCl2, 2.52 CaCl2, 11 glucose, and 5 HEPES, pH 7.4 adjusted with […]. […] The external solution and drug solutions were driven by gravity at the flow rate of 5 mL/min and the current responses were recorded at room temperature (20–22°C).

BALB/cAnNRj mice [9] = test: Open field test (spontaneous locomotor activity); type: in vivo
Protocol: Each mouse was then placed individually into the center of a brightly illuminated white Plexiglass arena (50 × 50 × 38 cm) and recorded continuously for 15 min with Ethovision version 13 tracking system (Noldus, Wageningen, The Netherlands). The parameters of locomotor activity such as distance and velocity were quantified and analyzed for the whole and subsections of the arena. All arena surfaces were thoroughly cleaned with 70% ethanol and dried between each tested subject.

[10] = set-up: method as in Fritsch and Shellhammer, 2007; conditions: ref Fritsch and Shellhammer, 2007; cited from earlier work
mice = test system: mice; set-up: method as in Schiller et al., 2006; conditions: ref Schiller et al., 2006, cited from earlier work
rats = conditions: ref Bejeuhr, 1993, cited from earlier work
BALB/cAnNRj mice [11] = test: Ethanol-induced sleep test; conditions: ethanol 3.5 g/kg i.p.; for duration of sleep induced by ethanol: vs control
BALB/cAnNRj mice [12] = test: Pentobarbital-induced sleep test
Protocol: As an index of drug-induced CNS inhibition, sleep latency (time between pentobarbital administration and loss of righting reflex) and duration of sleep (time between loss and recovery of righting reflex) were measured with a chronometer for each mouse. The recovery of the righting reflex was confirmed by the ability of the mice to re-right 3 times within 1 min. The drugs were freshly prepared before use, and the total injection volume (13 mL/kg) was retained constant.

[13] = ethanol 30 mM co-incubated with humulone 1 μM
[14] = humulone 10 mg/kg i.p. vs control
[15] = humulone 20 mg/kg i.p., 45 min after administration, 15 min observation, vs vehicle, p < 0.01
[16] = humulone 10 mg/kg i.p., pentobarbital sodium 35 mg/kg i.p.

Question: Which results are given for `CC(C)=CCc1c(O)cc2c(c1O)C(=O)C[C@@H](c1ccc(O)cc1)O2` [6PN, 6-prenylnaringenin]?
Answer: [3H]EBOB displacement normalized to the maximum radioligand binding in the presence of 3 μM GABA alone [1]: 14.2 ± 1.4%; sensitivity of modulatory effect on [3H]EBOB binding to flumazenil antagonism [2]: insensitivity; displacement of [3H]Ro 15-4513 binding (benzodiazepine binding site) [3]: remarkably more efficient

Question: For `COc1cc(O)c(CC=C(C)C)c2c1C(=O)CC(c1ccc(O)cc1)O2` (stereo not drawn) [IXN, isoxanthohumol], which “[3H]EBOB displacement normalized to the maximum radioligand binding in the presence of 3 μM GABA alone” value [1] is on record?
Answer: 14.4 ± 0.9%

Question: Which “modulatory effects on GABAA receptors” value (GABAA receptors) does the source give for `CCC(C)C(=O)C1=C(O)C(CC=C(C)C)=C(O)C(O)(CC=C(C)C)C1=O` (stereo not drawn) [adhumulone] here?
Answer: weak modulatory effects

Question: For `CC(C)=CCC1=C(O)C(O)(CC=C(C)C)C(=O)C(C(=O)C(C)C)=C1O` (stereo not drawn) [cohumulone], which “modulatory effects on GABAA receptors” value (GABAA receptors) is on record?
Answer: weak modulatory effects

Question: What does the source list for `CCO` [ethanol]?
Answer: effect of ethanol solely on [3H]EBOB binding [4]: neither displaces nor modulates; ethanol enhancement of humulone-mediated [3H]EBOB displacement ([5]; ethanol 30 mM co-incubated with humulone 1 μM, α6β3δ): did not significantly enhance; effect of ethanol alone on GABA-induced [3H]EBOB displacement ([5]; ethanol 30 mM, α6β3δ): no effect; also recorded: unaffected; ethanol enhancement of humulone-mediated [3H]EBOB displacement [6, 13]: did not alter; also recorded: did not enhance; effect of ethanol alone on GABA-induced [3H]EBOB binding ([6]; ethanol 30 mM): unaffected; ethanol enhancement of humulone-mediated [3H]EBOB displacement [7, 13]: did not alter; also recorded: did not enhance; effect of ethanol alone on GABA-induced [3H]EBOB binding ([7]; ethanol 30 mM): unaffected

Question: With `CC(C)=CCC1=C(O)[C@@](O)(CC=C(C)C)C(=O)C(C(=O)CC(C)C)=C1O` [humulone] as the molecule, how does the “potentiation of GABA-induced peak current amplitude, normalized to 1 μM GABA alone” value [8] read?
Answer: 158 ± 41%

Question: What about the “[3H]EBOB displacement normalized to the maximum radioligand binding in the presence of 3 μM GABA alone” value [1] of the same molecule?
Answer: 13.5 ± 1.5%

Question: What about the “extent of humulone non-competitive synergy with ethanol, cerebellum compared to forebrain” value ([4]; humulone 1 μM + ethanol 30 mM, from Table 1) of the same molecule?
Answer: 11.2%

Question: What about the “concentration at which potentiation of GABA-induced [3H]EBOB displacement was evident” value ([5]; α6β3δ) of the same molecule?
Answer: ≥ 1 µM

Question: What about the “increase in potency in α6β3δ compared to α6β3 receptors” value ([5]; ratio of IC50 values) of the same molecule?
Answer: 6.7 fold

Question: What about the “increase in potency in α6β3δ compared to α6β3γ2 receptors” value ([5]; ratio of IC50 values) of the same molecule?
Answer: 5.8 fold

Question: What about the “concentration at which potentiation of GABA-induced [3H]EBOB displacement was observed” value [6] of the same molecule?
Answer: ≥ 10 µM

Question: What about the “effect on [3H]EBOB displacement induced by GABA” value ([6]; humulone 1 μM) of the same molecule?
Answer: absent

Question: And the “concentration at which potentiation of GABA-induced [3H]EBOB displacement was observed” value [7]?
Answer: ≥ 10 µM

Question: And the “effect on [3H]EBOB displacement induced by GABA” value ([7]; humulone 1 μM)?
Answer: absent

Question: What about the “significant difference in average velocity in open field” value (BALB/cAnNRj mice [9]; [14]) of the same molecule?
Answer: not observed

Question: What about the “significant difference in total distance traveled in open field” value (BALB/cAnNRj mice [9]; [14]) of the same molecule?
Answer: not observed

Question: What about the “average velocity in open field” value (BALB/cAnNRj mice [9]; [15]) of the same molecule?
Answer: lower

Question: What about the “total distance traveled in open field” value (BALB/cAnNRj mice [9]; [15]) of the same molecule?
Answer: shorter

Question: What about the “time spent in periphery and center in open field” value (BALB/cAnNRj mice [9]; humulone 10 and 20 mg/kg i.p. vs vehicle, Supplementary Figure S3) of the same molecule?
Answer: no differences

Question: And the IC50 ([2]; rat forebrain membranes, read-out: IC50, modulation of [3H]EBOB binding)?
Answer: 3.2 ± 0.4 µM

Question: What about the “sensitivity of modulatory effect on [3H]EBOB binding to flumazenil antagonism” value [2] of the same molecule?
Answer: insensitive

Question: And the “sensitivity of modulatory effect on [3H]EBOB binding to flumazenil antagonism” value ([2]; listed as humulone fraction)?
Answer: insensitivity

Question: And the solubility in beer [10]?
Answer: 14 µg/mL (≈ 38.6 µM)

Question: What about the “displacement of [3H]Ro 15-4513 binding (benzodiazepine binding site)” value [3] of the same molecule?
Answer: very weak displacement

Question: And the “displacement of [3H]Ro 15-4513 binding (benzodiazepine binding site)” value ([3]; listed as humulone fraction)?
Answer: low potency

Question: And the “duration of sleep induced by ketamine” value (mice; humulone component in alpha acid extract at 21 mg/kg)?
Answer: increase

Question: And the “duration of sleep induced by ketamine, additional effect at higher dose” value (mice; humulone component in alpha acid extract at 42 mg/kg)?
Answer: no additional effect

Question: What about the LD50 (rats; i.m. (rats)) of the same molecule?
Answer: 600 mg/kg/b.w.

Question: And the LD50 (rats; p.o., rodents)?
Answer: 1,500 mg/kg/b.w.

Question: What about the “duration of sleep induced by ethanol” value (BALB/cAnNRj mice [11]; humulone 10 mg/kg i.p., p < 0.05) of the same molecule?
Answer: significantly increased

Question: And the “duration of sleep induced by ethanol” value (BALB/cAnNRj mice [11]; humulone 20 mg/kg i.p., p < 0.001)?
Answer: significantly increased

Question: And the “onset of sleep induced by ethanol” value (BALB/cAnNRj mice [11]; humulone 10 or 20 mg/kg i.p.)?
Answer: no effect

Question: And the “duration of sleep induced by pentobarbital” value (BALB/cAnNRj mice [12]; [16])?
Answer: not observed

Question: What about the “sleep latency induced by pentobarbital” value (BALB/cAnNRj mice [12]; [16]) of the same molecule?
Answer: not observed

Question: And the “duration of sleep induced by pentobarbital” value (BALB/cAnNRj mice [12]; humulone 20 mg/kg i.p., 45 min before pentobarbital sodium 35 mg/kg i.p., vs control, p < 0.001)?
Answer: prolonged

Question: And the “sleep latency induced by pentobarbital” value (BALB/cAnNRj mice [12]; humulone 20 mg/kg i.p., 45 min before pentobarbital sodium 35 mg/kg i.p., vs control, p < 0.01)?
Answer: significantly decreased
